According to a melting point compilation (Tetko et al.; mined from patent text by program, amines drawn as free bases though some values may be those of a salt):

SMILES	melting point [°C]
Cc1cc(Br)cc(C)c1N([Si](C)(C)C)[Si](C)(C)C	47 to 52
CC(C)(C)C(=O)NS(=O)(=O)c1cccc([N+](=O)[O-])c1	178 to 181
O=C(O)COc1cc2c(c(Cl)c1Cl)C(=O)C(c1ccc(F)cc1)C2 (stereo not drawn)	189 to 190
CCOP(=O)(OCC)Oc1cc(CC)ccc1C1CCN(CCCCNC(=O)c2ccc(NC(=O)c3ccc(Cl)cc3)cc2)CC1	158 to 160
CCc1cc(C(=O)OC)c(C2=NC(=O)C(C)(C(C)C)N2)nc1COC (stereo not drawn)	87 to 90
BrCC1(c2ccc3ccccc3c2)OCCO1	64
C=CCc1cc(C(=O)CC(=O)C(C)(C)C)cc(OC)c1O	115 to 116
COc1ccc(COC(=O)c2cc(Br)nn2-c2ncccc2Cl)cc1	83
OCc1cc2cc3c(cc2nc1I)OCCO3	178 to 180
CCOC(=O)c1c(C(C)Cl)nc2c(C(F)(F)F)cccc2c1O (stereo not drawn)	104
COC(=O)C1C(c2cccc([N+](=O)[O-])c2)C(C(=O)OC(C)C)=C(C)NC1(O)c1ccccc1 (stereo not drawn)	134 to 135
Cc1cc(NC(=O)C(=O)N2CCCCC2)cc(C)c1S(=O)(=O)C[N+](=O)[O-]	169 to 170
O=c1[nH]c2cc(Cl)ccc2c(O)c1-c1ccccc1Br	357 to 358
CN(C(=O)C1CCCCC1)c1cccc(-c2nc(=O)c3ccccc3s2)n1	184 to 186
CC(C)(C)OC(=O)N1CCC(CC(O)c2c3c(nn2-c2ccccc2)c(=O)[nH]c2ccccc23)CC1 (stereo not drawn)	253 to 254
Cc1nc(-c2ccc(F)cc2)c(CO)c(C(C)C)c1C#N	150
COc1ccc(CCNC(=O)C(F)(F)F)c2c1NC(=O)C2=O	234 to 237
CC1Oc2c(F)cc(CN3CC=C(c4ccc(Cl)cc4)CC3)cc2NC1=O (stereo not drawn)	214 to 233
Cc1n[nH]c(C)c1[C@H](C)NC(=O)COc1cc(C(F)(F)F)c2c(-c3ccccc3)nn(C)c2n1	145 to 147
CC1CN(C(=O)COc2nc(-c3ccc(Cl)cc3)nc3c2CCCC3)CC(C)O1 (stereo not drawn)	265 to 268
CN1CCC(NC(c2cccc(O)c2)c2nc3ccccc3[nH]2)CC1 (stereo not drawn)	230
O=C(O)Cc1cccc(OCc2ccccc2Cl)c1OCc1ccccc1Cl	102 to 104
CCOC(=O)c1c(OCC)c2ccc(C)nc2n(CC)c1=O	77 to 79
OCC(=C(c1ccc(F)cc1)c1ccc(F)cc1)n1nnnc1-c1ccccc1	197 to 198

SMILES	melting point [°C]
O=c1[nH]c2cc(F)c([N+](=O)[O-])cc2o1	207 to 209
Clc1ccc2c(c1)c(-c1ccccc1)nn1cnnc21	189 to 190
O=Cc1csc(NC(=O)OCC(Cl)(Cl)Cl)n1	188 to 190
CCCCCC1CCC(c2ccc(C(=O)O)cc2)CC1 (stereo not drawn)	30
CC1Cc2cc3c(cc2C(c2ccc([N+](=O)[O-])cc2)=NN1C(=S)NC(=O)NC1CC1)OCO3 (stereo not drawn)	281 to 283
Cc1nc(CCCCn2cnc3c2c(=O)n(C)c(=O)n3C)no1	131 to 132
Cc1noc(-c2cccc(Oc3ccc4c(c3)S(=O)(=O)NCCO4)c2)n1	140
CCCCOCCOc1ccc(-c2ccc(N3CCCC3)c(C(C)=CC(=O)O)c2)cc1	128
CCOCCOc1cc(C(C)C)c(NC(=O)CN2CCN(CCSc3nc4ccccc4o3)CC2)c(C(C)C)c1	92 to 95
CC(C)[C@H](NC(=O)OC(C)(C)C)C(=O)N[C@H](CCC(=O)OCc1ccccc1)C(N)=O	149 to 151
CC(C)(NC(=O)C(CS)Cc1ccccc1)C(=O)OCc1ccccc1 (stereo not drawn)	53 to 56
COc1ccc2nccc(NC(=O)N3CCN(CC(=O)c4cnc5ccccc5n4)CC3)c2n1	167 to 169
O=C(OC1CCCCC1)c1ccc(Nc2nc(Nc3ccc(C(=O)OC4CCCCC4)cc3)nc(Nc3ccc(C(=O)OC4CCCCC4)cc3)n2)cc1	171 to 173
CCC1(CC)COP(=O)(Cc2ccc(N)cc2)OC1	128 to 129
CCCCCCCCCCCCCCCCCCOCC(Br)COCCCCCCCCCCCCCCCCCC	47.9 to 48.7
CCn1ncc2c(NCc3ccc(C#N)cc3)c3ccccc3nc21	233 to 234
CCOC(=O)c1ccc(COc2cccc3nc(C(=O)NCc4cccc(OC)c4)[nH]c(=O)c23)cc1	205 to 207
Cc1ncc(-c2ccc(C(F)(F)F)cc2)c(NC2CCCCC2)n1	220 to 225
Cc1cc(CNc2cccc(C(=O)O)c2C(=O)O)oc1C	127 to 129
CC(C)=CCNC(=O)N1CC(Oc2cccc(C(F)(F)F)c2)C1	143 to 144
CC(C)N1Cc2cccnc2N(c2ccccc2)C1=O	164 to 165
CC1(C)CC(=O)c2c(N3CCC3)sc(-c3cc[nH]n3)c2C1	263 to 265
CCCC(CO)N1CC(COc2cccc(Cl)c2)OC1=O (stereo not drawn)	79 to 81
COc1cc(OCc2cccnc2)ccc1/C=C/c1cc(/C=C/c2ccc3[nH]ccc3c2)n[nH]1	127 to 135
